Data: paper PMC8138958 (ACS infectious diseases, 2021)
In brackets after ≈: the same amount, converted by molar mass. Read-outs that look alike come from different tables or passages of the source. Marks after values point to notes of the source that are not given here. Where a SMILES comes first, the peptide text is derived from it. Bridges are numbered along the chain shown (N, C = ends). [ ]: non-standard residue; d: D form. The star is where a group is joined. X2 = NC[C@@H](CC(=O)*)c1cccc(Cl)c1; Dab = NCC[C@H](N)C(=O)O; Dap = NC[C@H](N)C(=O)O

Legend:
P.aeruginosa IHMA517175 = format: cell-based, Pseudomonas aeruginosa; conditions: compound alone; reduced susceptibility to polymyxins
K. pneumoniae IHMA580884 = format: cell-based, Klebsiella pneumoniae; conditions: compound alone; reduced susceptibility to polymyxins
A.baumannii NCTC 13301 = format: cell-based, Acinetobacter baumannii; conditions: compound alone, polymyxin-susceptible strain
E.coli ATCC 25922 = format: cell-based, Escherichia coli; conditions: compound alone; polymyxin-susceptible strain
[1] = Determination of kidney drug levels; format: in vivo; conditions: mouse, single 17.2 mg/kg subcutaneous dose, period 4-16 hr
E. coli IHMA558090 = format: cell-based, Escherichia coli; conditions: compound alone; reduced susceptibility to polymyxins
[2] = Cynomolgus monkey; cited from earlier work
[3] = mouse; cited from earlier work
K.pneumoniae IHMA520329 = format: cell-based, Klebsiella pneumoniae; conditions: compound alone; reduced susceptibility to polymyxins
A.baumannii BAA-747 = format: cell-based, Acinetobacter baumannii; conditions: compound alone; polymyxin-susceptible strain
P.aeruginosa IHMA644636 = format: cell-based, Pseudomonas aeruginosa; conditions: compound alone; reduced susceptibility to polymyxins
P.aeruginosa ATCC 27853 = format: cell-based, Pseudomonas aeruginosa; conditions: compound alone; polymyxin-susceptible strain
E.coli IHMA940398 = format: cell-based, Escherichia coli; conditions: compound alone; reduced susceptibility to polymyxins
A.baumannii IHMA 517303 = format: cell-based, Acinetobacter baumannii; conditions: compound alone; reduced susceptibility to polymyxins
K.pneumonia ATCC 13882 = format: cell-based, Klebsiella pneumoniae; conditions: compound alone; polymyxin-susceptible strain
K.pneumoniae IHMA652780 = test: MIC by broth microdilution; format: cell-based, Klebsiella pneumoniae; conditions: compound alone; reduced susceptibility to polymyxins
A.baumannii IHMA 851735 = test: MIC by broth microdilution; format: cell-based, Acinetobacter baumannii; conditions: compound alone; reduced susceptibility to polymyxins
[4] = Plasma exposure in the renal toxicity study; format: in vivo; conditions: mouse, 25 mg/kg dose level
A. baumannii NCTC13301 = test: Neutropenic mouse thigh efficacy model; format: in vivo, Acinetobacter baumannii; conditions: same conditions (20mg/kg)
[5] = In vivo nephrotoxicity, kidney histopathology and urinary biomarkers; parameters: species or system male CD-1 mice

Molecule | MIC P.aeruginosa IHMA517175 (P.aeruginosa IHMA517175) [µg/mL] | MIC K. pneumoniae IHMA580884 (K. pneumoniae IHMA580884) [µg/mL] | MIC A.baumannii NCTC 13301 (A.baumannii NCTC 13301) [µg/mL] | MIC E.coli ATCC 25922 (E.coli ATCC 25922) [µg/mL] | MIC E. coli IHMA558090 (E. coli IHMA558090) [µg/mL] | MIC K.pneumoniae IHMA520329 (K.pneumoniae IHMA520329) [µg/mL] | MIC A.baumannii BAA-747 (A.baumannii BAA-747) [µg/mL] | MIC P.aeruginosa IHMA644636 (P.aeruginosa IHMA644636) [µg/mL] | MIC P.aeruginosa ATCC 27853 (P.aeruginosa ATCC 27853) [µg/mL] | MIC E.coli IHMA940398 (E.coli IHMA940398) [µg/mL] | MIC A.baumannii IHMA 517303 (A.baumannii IHMA 517303) [µg/mL] | MIC K.pneumonia ATCC 13882 (K.pneumonia ATCC 13882) [µg/mL] | other results
CC(C)C[C@@H]1NC(=O)[C@@H](Cc2ccccc2)NC(=O)[C@H](CCN)NC(=O)[C@@H](NC(=O)[C@H](CN)NC(=O)[C@@H](NC(=O)C[C@H](CN)c2cccc(Cl)c2)[C@@H](C)O)CCNC(=O)[C@H]([C@@H](C)O)NC(=O)[C@H](CCN)NC(=O)[C@H](CCN)NC1=O [Compound 26, SPR206] (X2-T[Dap][Dab][Dab][dF]L[Dab][Dab]T; lactam 3-C (inferred)) | 8 (≈ 6.99 µM) | 16 (≈ 14 µM) | 0.06 (≈ 0.0524 µM) | 0.125 (≈ 0.109 µM) | 8 (≈ 6.99 µM) | 64 (≈ 55.9 µM) | 0.125 (≈ 0.109 µM) | 32 (≈ 28 µM) | 0.25 (≈ 0.218 µM) | 32 (≈ 28 µM) | >64 | 0.125 (≈ 0.109 µM) | AUC in renal tissue [1]: 850 µg·h/g; renal toxicity compared to PMB [2]: significantly reduced renal toxicity compared to PMB; renal toxicity compared to PMB [3]: significantly reduced renal toxicity compared to PMB
Colistin [2 (Colistin)] | 64 | 16 | 0.5 | 0.25 | 4 | >64 | 0.25 | 32 | 1 | 16 | >64 | 0.25 | –
Polymyxin B [1 (PMB)] | 8 | 8 | 0.25 | 0.25 | 4 | 64 | 0.25 | 32 | 0.5 | 16 | >64 | 0.25 | MIC A.baumannii NCTC 13301 (A.baumannii NCTC 13301; listed as PMB): 0.25 µg/mL; MIC K.pneumoniae IHMA652780 (K.pneumoniae IHMA652780): 4 µg/mL; MIC A.baumannii IHMA 851735 (A.baumannii IHMA 851735): 4 µg/mL; plasma AUCinf [4]: 57000 ng·h/mL; drop in colony forming units (CFU) from the pre-treatment level (A. baumannii NCTC13301): greater than 2 log10; Histopathology score – number of animals Normal ([5]; 12.5 mg/kg, 24hr, n = 5): 5; Histopathology score – number of animals Minimal ([5]; 12.5 mg/kg, 4 days, n = 5): 1; Histopathology score – number of animals Normal ([5]; 12.5 mg/kg, 4 days, n = 5): 4; Histopathology score – number of animals Mild ([5]; 25 mg/kg, 24hr, n = 5): 2; Histopathology score – number of animals Minimal ([5]; 25 mg/kg, 24hr, n = 5): 2; Histopathology score – number of animals Moderate ([5]; 25 mg/kg, 24hr, n = 5): 1 ^*; Histopathology score – number of animals Minimal ([5]; 25 mg/kg, 4 days, n = 5): 2; kidney histopathology ([5]; mouse, 25 mg/kg sc three times per day, 24 hr and 4 day studies): significant histopathology changes in the kidneys
